From patent US20260022096A1, “NOVEL SULFONAMIDES AND THEIR USE AS NEUROPROTECTIVE AND/OR NEURORESTORATIVE AGENTS” (GENECODE, priority 2022, published 2026)

Molecular target: T1, GFRα1-RET (Homo sapiens, UniProt P56159)
T1 construct: expressed in transfected cells; host or cells: MG87 murine fibroblasts, stably transfected
T1 sequence (P56159 25-429 limits assumed): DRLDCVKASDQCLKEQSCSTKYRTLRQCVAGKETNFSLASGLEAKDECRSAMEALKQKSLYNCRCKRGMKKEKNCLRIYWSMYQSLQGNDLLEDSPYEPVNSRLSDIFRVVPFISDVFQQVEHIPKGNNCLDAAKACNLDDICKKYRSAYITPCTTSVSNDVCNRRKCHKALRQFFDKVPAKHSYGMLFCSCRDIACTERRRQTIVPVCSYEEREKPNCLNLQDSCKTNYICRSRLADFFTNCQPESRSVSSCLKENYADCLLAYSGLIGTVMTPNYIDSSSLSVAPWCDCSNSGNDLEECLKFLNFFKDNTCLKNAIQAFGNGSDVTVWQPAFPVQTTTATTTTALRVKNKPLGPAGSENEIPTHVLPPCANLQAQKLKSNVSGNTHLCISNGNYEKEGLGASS
Assay: Elk1 reporter-gene (luciferase) assay in cells expressing GFRα1-RET
Format: cell-based
Conditions: MG87 murine fibroblasts stably transfected with PathDetect Elk-1, GFRα1 and RET, 6 concentrations, agonist/activator activity
Experimental: For ECso determination, a dose-response test was performed using 6 concentrations of each tested compound. Dose-response curves were fitted using the sigmoidal dose-response (variable slope) analysis in GraphPad Prism program (Graph Pad Inc) and ECso of agonist/activator activity was calculated. Dose-response experiments were all performed in duplicate, two times independently.

Compound | EC50
CC(C)(O)c1ccc(S(=O)(=O)N2CCC(c3ccccc3)CC2)cc1N1[C@@H]2CC[C@H]1CN(C(=O)c1ccc(F)cc1Cl)C2 [compound 072, (2-chloro-4-fluoro-phenyl)-[(1S,5R)-8-[2-(1-hydroxy-1-methyl-ethyl)-5-[(4-phenyl-1-piperidyl)sulfonyl]phenyl]-3,8-diazabicyclo[3.2.1]octan-3-yl]methanone] | 1000 to 10000 nM
CN(C)Cc1ccc(S(=O)(=O)N2CCC(c3ccccc3)CC2)cc1N1[C@@H]2CC[C@H]1CN(C(=O)c1ccc(F)cc1Cl)C2 [compound 073, (2-chloro-4-fluoro-phenyl)-[(1S,5R)-8-[2-[(dimethylamino)methyl]-5-[(4-phenyl-1-piperidyl)sulfonyl]phenyl]-3,8-diazabicyclo[3.2.1]octan-3-yl]methanone] | 1000 to 10000 nM
Cc1c(Cl)cc(S(=O)(=O)NC(C)(C)C)cc1N1[C@@H]2CC[C@H]1CN(C(=O)c1ccc(F)cc1Cl)C2 [compound 074, N-tert-butyl-3-chloro-5-[(1S,5R)-3-(2-chloro-4-fluoro-benzoyl)-3,8-diazabicyclo[3.2.1]octan-8-yl]-4-methyl-benzenesulfonamide] | < 1000 nM
CC(C)(C)NS(=O)(=O)c1cc(Cl)c(Cl)c(N2[C@@H]3CC[C@H]2CN(C(=O)c2ccc(F)cc2Cl)C3)c1 [compound 075, N-tert-butyl-3,4-dichloro-5-[(1S,5R)-3-(2-chloro-4-fluoro-benzoyl)-3,8-diazabicyclo[3.2.1]octan-8-yl]benzenesulfonamide] | < 1000 nM
O=C(c1ccc(F)cc1Cl)N1C[C@H]2CC[C@@H](C1)N2c1cc(S(=O)(=O)N2CCC(c3ccccc3)CC2)ccc1OCCO [compound 076] | < 1000 nM
O=C(c1ccc(F)cc1Cl)N1C[C@H]2CC[C@@H](C1)N2c1cc(S(=O)(=O)N2CCC(CCc3ccccc3)CC2)ccc1OCCO [compound 077, (2-chloro-4-fluoro-phenyl)-[(1S,5R)-8-[2-(2-hydroxyethoxy)-5-[[4-(2-phenylethyl)-1-piperidyl]sulfonyl]phenyl]-3,8-diazabicyclo[3.2.1]octan-3-yl]methanone] | < 1000 nM
O=C(c1ccc(F)cc1Cl)N1C[C@H]2CC[C@@H](C1)N2c1cc(S(=O)(=O)N2CCN(CCc3ccc(Cl)cc3)CC2)ccc1OCCO [compound 078, (2-chloro-4-fluoro-phenyl)-[(1S,5R)-8-[5-[4-[2-(4-chlorophenyl)ethyl]piperazin-1-yl]sulfonyl-2-(2-hydroxyethoxy)phenyl]-3,8-diazabicyclo[3.2.1]octan-3-yl]methanone] | < 1000 nM
CCCN(C)S(=O)(=O)c1ccc(C2CC2)c(N2[C@@H]3CC[C@H]2CN(C(=O)c2ccc(F)cc2Cl)C3)c1 [compound 079] | < 1000 nM
O=C(c1ccc(F)cc1Cl)N1C[C@H]2CC[C@@H](C1)N2c1cc(S(=O)(=O)N2CCC(c3ccccc3)CC2)ccc1C1CC1 [compound 080, (2-chloro-4-fluoro-phenyl)-[(1S,5R)-8-[2-cyclopropyl-5-[(4-phenyl-1-piperidyl)sulfonyl]phenyl]-3,8-diazabicyclo[3.2.1]octan-3-yl]methanone] | < 1000 nM
O=C(c1ccc(F)cc1Cl)N1C[C@H]2CC[C@@H](C1)N2c1cc(S(=O)(=O)N2CCC(c3ccccc3)CC2)ccc1-c1c[nH]cn1 [compound 081] | < 1000 nM
Cn1cnc(-c2ccc(S(=O)(=O)N3CCC(c4ccccc4)CC3)cc2N2[C@@H]3CC[C@H]2CN(C(=O)c2ccc(F)cc2Cl)C3)c1 [compound 082, (2-chloro-4-fluoro-phenyl)-[(1S,5R)-8-[2-(1-methylimidazol-4-yl)-5-[(4-phenyl-1-piperidyl)sulfonyl]phenyl]-3,8-diazabicyclo[3.2.1]octan-3-yl]methanone] | 1000 to 10000 nM
O=C(c1ccc(F)cc1Cl)N1C[C@H]2CC[C@@H](C1)N2c1cc(S(=O)(=O)N2CCC(c3ccccc3)CC2)cc(F)c1O [compound 083, (2-chloro-4-fluoro-phenyl)-[(1S,5R)-8-[3-fluoro-2-hydroxy-5-[(4-phenyl-1-piperidyl)sulfonyl]phenyl]-3,8-diazabicyclo[3.2.1]octan-3-yl]methanone] | < 1000 nM
O=C(c1ccc(F)cc1Cl)N1C[C@H]2CC[C@@H](C1)N2c1cc(S(=O)(=O)N2CCC(c3ccc(F)cc3)CC2)cc(F)c1O [compound 084, (2-chloro-4-fluoro-phenyl)-[(1S,5R)-8-[3-fluoro-5-[[4-(4-fluorophenyl)-1-piperidyl]sulfonyl]-2-hydroxy-phenyl]-3,8-diazabicyclo[3.2.1]octan-3-yl]methanone] | < 1000 nM
CC(C)(C)NS(=O)(=O)c1cc(F)c(O)c(N2[C@@H]3CC[C@H]2CN(C(=O)c2ccc(F)cc2Cl)C3)c1 [compound 085, N-tert-butyl-3-[(1S,5R)-3-(2-chloro-4-fluoro-benzoyl)-3,8-diazabicyclo[3.2.1]octan-8-yl]-5-fluoro-4-hydroxy-benzenesulfonamide] | < 1000 nM
CN(CC1CC1)S(=O)(=O)c1cc(F)c(O)c(N2[C@@H]3CC[C@H]2CN(C(=O)c2ccc(F)cc2Cl)C3)c1 [compound 086, 3-[(1S,5R)-3-(2-chloro-4-fluoro-benzoyl)-3,8-diazabicyclo[3.2.1]octan-8-yl]-N-(cyclopropylmethyl)-5-fluoro-4-hydroxy-N-methyl-benzenesulfonamide] | < 1000 nM
O=C(c1ccc(F)cc1Cl)N1C[C@H]2CC[C@@H](C1)N2c1cc(S(=O)(=O)N2CCC(c3ccccc3)CC2)cc(C(F)(F)F)c1O [compound 087] | < 1000 nM
O=C(c1ccc(F)cc1Cl)N1C[C@H]2CC[C@@H](C1)N2c1cc(S(=O)(=O)N2CCC(c3ccc(F)cc3)CC2)cc(C(F)(F)F)c1O [compound 088, (2-chloro-4-fluoro-phenyl)-[(1S,5R)-8-[5-[[4-(4-fluorophenyl)-1-piperidyl]sulfonyl]-2-hydroxy-3-(trifluoromethyl)phenyl]-3,8-diazabicyclo[3.2.1]octan-3-yl]methanone] | < 1000 nM
CC(C)(C)NS(=O)(=O)c1cc(N2[C@@H]3CC[C@H]2CN(C(=O)c2ccc(F)cc2Cl)C3)c(O)c(C(F)(F)F)c1 [compound 089] | 1000 to 10000 nM
Cc1cc(S(=O)(=O)N2CCC(c3ccccc3)CC2)cc(N2[C@@H]3CC[C@H]2CN(C(=O)c2ccc(F)cc2Cl)C3)c1O [compound 090, (2-chloro-4-fluoro-phenyl)-[(1S,5R)-8-[2-hydroxy-3-methyl-5-[(4-phenyl-1-piperidyl)sulfonyl]phenyl]-3,8-diazabicyclo[3.2.1]octan-3-yl]methanone] | < 1000 nM
Cc1cc(S(=O)(=O)N2CCC(c3ccc(F)cc3)CC2)cc(N2[C@@H]3CC[C@H]2CN(C(=O)c2ccc(F)cc2Cl)C3)c1O [compound 091, (2-chloro-4-fluoro-phenyl)-[(1S,5R)-8-[5-[[4-(4-fluorophenyl)-1-piperidyl]sulfonyl]-2-hydroxy-3-methyl-phenyl]-3,8-diazabicyclo[3.2.1]octan-3-yl]methanone] | < 1000 nM
Cc1cc(S(=O)(=O)N(C)CC2CC2)cc(N2[C@@H]3CC[C@H]2CN(C(=O)c2ccc(F)cc2Cl)C3)c1O [compound 092, 3-[(1S,5R)-3-(2-chloro-4-fluoro-benzoyl)-3,8-diazabicyclo[3.2.1]octan-8-yl]-N-(cyclopropylmethyl)-4-hydroxy-N,5-dimethyl-benzenesulfonamide] | < 1000 nM
Cc1cc(S(=O)(=O)NC(C)(C)C)cc(N2[C@@H]3CC[C@H]2CN(C(=O)c2ccc(F)cc2Cl)C3)c1O [compound 093] | < 1000 nM
CCc1cc(S(=O)(=O)N2CCC(c3ccccc3)CC2)cc(N2[C@@H]3CC[C@H]2CN(C(=O)c2ccc(F)cc2Cl)C3)c1O [compound 094, (2-chloro-4-fluoro-phenyl)-[(1S,5R)-8-[3-ethyl-2-hydroxy-5-[(4-phenyl-1-piperidyl)sulfonyl]phenyl]-3,8-diazabicyclo[3.2.1]octan-3-yl]methanone] | < 1000 nM
CC(C)(C)NS(=O)(=O)c1cc(Cl)c(O)c(N2[C@@H]3CC[C@H]2CN(C(=O)c2ccc(F)cc2Cl)C3)c1 [compound 095, N-tert-butyl-3-chloro-5-[(1S,5R)-3-(2-chloro-4-fluoro-benzoyl)-3,8-diazabicyclo[3.2.1]octan-8-yl]-4-hydroxy-benzenesulfonamide] | < 1000 nM
CN(CC1CC1)S(=O)(=O)c1cc(Cl)c(O)c(N2[C@@H]3CC[C@H]2CN(C(=O)c2ccc(F)cc2Cl)C3)c1 [compound 096, 3-chloro-5-[(1S,5R)-3-(2-chloro-4-fluoro-benzoyl)-3,8-diazabicyclo[3.2.1]octan-8-yl]-N-(cyclopropylmethyl)-4-hydroxy-N-methyl-benzenesulfonamide] | < 1000 nM
O=C(c1ccc(F)cc1Cl)N1C[C@H]2CC[C@@H](C1)N2c1cc(S(=O)(=O)N2CCC(F)CC2)cc(Cl)c1O [compound 097, (2-chloro-4-fluoro-phenyl)-[(1S,5R)-8-[3-chloro-5-[(4-fluoro-1-piperidyl)sulfonyl]-2-hydroxy-phenyl]-3,8-diazabicyclo[3.2.1]octan-3-yl]methanone] | < 1000 nM
O=C(c1ccc(F)cc1Cl)N1C[C@H]2CC[C@@H](C1)N2c1cc(S(=O)(=O)N2CCC(c3ccccc3)CC2)cc(Cl)c1O [compound 098] | < 1000 nM
